Legend:
[1] = molecular target: T1, Nitric oxide synthase, inducible (Mus musculus) (UniProt P29477); assay: Compound was tested for the percent inhibition of nitric oxide synthase (i) using [14C]L-citrulline as radioligand.; conditions: concentration not given here
T1 sequence (whole entry): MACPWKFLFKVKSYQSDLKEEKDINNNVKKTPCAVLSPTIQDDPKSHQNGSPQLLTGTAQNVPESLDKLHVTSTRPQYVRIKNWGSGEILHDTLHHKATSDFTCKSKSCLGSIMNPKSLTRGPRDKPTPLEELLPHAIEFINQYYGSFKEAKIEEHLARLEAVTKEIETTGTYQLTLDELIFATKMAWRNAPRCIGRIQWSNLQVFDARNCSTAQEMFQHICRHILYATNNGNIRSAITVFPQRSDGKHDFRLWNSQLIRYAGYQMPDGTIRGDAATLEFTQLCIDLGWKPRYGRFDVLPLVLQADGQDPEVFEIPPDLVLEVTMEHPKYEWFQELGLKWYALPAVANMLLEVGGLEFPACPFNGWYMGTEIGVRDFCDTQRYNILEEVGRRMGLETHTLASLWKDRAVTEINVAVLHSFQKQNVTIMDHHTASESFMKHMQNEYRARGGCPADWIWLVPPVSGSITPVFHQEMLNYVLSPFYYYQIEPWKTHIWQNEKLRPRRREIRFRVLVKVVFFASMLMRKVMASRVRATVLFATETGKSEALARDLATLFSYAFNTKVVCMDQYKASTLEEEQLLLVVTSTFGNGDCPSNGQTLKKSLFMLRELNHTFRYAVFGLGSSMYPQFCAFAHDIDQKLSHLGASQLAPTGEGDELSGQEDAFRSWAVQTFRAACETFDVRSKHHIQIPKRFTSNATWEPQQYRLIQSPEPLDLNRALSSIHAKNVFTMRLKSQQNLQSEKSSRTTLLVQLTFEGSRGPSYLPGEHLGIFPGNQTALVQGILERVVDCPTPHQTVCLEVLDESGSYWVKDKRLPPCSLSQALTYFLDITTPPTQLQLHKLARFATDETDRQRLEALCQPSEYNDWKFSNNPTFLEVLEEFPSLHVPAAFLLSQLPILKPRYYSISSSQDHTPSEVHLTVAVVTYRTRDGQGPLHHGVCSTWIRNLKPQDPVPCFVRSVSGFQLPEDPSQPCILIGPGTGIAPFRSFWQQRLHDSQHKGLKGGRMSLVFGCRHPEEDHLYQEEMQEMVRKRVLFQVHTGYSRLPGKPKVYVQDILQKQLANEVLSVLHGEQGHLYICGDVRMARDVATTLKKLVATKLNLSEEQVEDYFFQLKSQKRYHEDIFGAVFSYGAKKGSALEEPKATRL

[2] = molecular target: T2, Nitric oxide synthase 3 (Bos taurus) (UniProt P29473); assay: Compound was tested for the percent inhibition of nitric oxide synthase (e) using [14C]L-citrulline as radioligand.; conditions: concentration not given here
T2 sequence (whole entry): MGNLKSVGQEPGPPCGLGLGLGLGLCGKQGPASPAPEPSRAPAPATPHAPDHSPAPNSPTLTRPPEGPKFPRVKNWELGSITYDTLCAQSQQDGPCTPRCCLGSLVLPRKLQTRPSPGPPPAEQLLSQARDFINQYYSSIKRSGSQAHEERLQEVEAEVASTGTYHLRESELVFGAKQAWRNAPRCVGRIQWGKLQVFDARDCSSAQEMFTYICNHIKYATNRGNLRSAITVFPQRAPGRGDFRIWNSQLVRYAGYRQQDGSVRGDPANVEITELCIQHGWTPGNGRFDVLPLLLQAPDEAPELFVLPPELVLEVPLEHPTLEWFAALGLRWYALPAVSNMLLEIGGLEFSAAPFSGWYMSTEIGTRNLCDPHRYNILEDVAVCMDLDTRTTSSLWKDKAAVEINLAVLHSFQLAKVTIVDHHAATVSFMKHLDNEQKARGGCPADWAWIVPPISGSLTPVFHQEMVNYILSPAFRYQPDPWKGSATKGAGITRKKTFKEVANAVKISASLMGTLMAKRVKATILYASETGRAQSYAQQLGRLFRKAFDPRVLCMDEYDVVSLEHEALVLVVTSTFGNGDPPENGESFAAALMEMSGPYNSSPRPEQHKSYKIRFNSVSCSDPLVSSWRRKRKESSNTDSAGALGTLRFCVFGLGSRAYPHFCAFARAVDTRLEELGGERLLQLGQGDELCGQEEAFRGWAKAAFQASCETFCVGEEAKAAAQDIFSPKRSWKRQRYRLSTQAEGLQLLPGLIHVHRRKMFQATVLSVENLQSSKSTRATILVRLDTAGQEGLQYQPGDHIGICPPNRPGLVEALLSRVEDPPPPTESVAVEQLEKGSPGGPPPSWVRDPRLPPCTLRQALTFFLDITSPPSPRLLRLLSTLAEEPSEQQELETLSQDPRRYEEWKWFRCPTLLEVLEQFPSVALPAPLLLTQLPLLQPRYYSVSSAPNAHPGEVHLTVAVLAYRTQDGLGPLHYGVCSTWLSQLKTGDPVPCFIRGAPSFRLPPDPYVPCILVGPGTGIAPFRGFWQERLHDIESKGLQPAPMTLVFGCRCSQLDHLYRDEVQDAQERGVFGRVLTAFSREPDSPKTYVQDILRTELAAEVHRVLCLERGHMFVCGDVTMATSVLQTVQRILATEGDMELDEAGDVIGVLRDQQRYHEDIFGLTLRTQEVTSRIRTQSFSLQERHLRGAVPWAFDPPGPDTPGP

[3] = molecular target: Nitric oxide synthase 1 (Rattus norvegicus) (UniProt P29476); assay: Compound was tested for the percent inhibition of nitric oxide synthase (n) using [14C]L-citrulline as radioligand.; conditions: concentration not given here
[4] = molecular target: T3, Nitric oxide synthase, inducible (Mus musculus, UniProt P29477); assay: Compound was tested for the competitive inhibition of nitric oxide synthase (i) using [14C]L-citrulline as radioligand. value ranges from 3.6-9 uM
T3 sequence (P29477 whole entry): T1 sequence (whole entry)

Nitric oxide synthase 1 = Nitric oxide synthase 1 (Rattus norvegicus, UniProt P29476); assay: Compound was tested for the competitive inhibition of nitric oxide synthase (n) using [14C]L-citrulline as radioligand.; value ranges from 0.06-2 uM
Nitric oxide synthase 1, sequence (P29476 whole entry): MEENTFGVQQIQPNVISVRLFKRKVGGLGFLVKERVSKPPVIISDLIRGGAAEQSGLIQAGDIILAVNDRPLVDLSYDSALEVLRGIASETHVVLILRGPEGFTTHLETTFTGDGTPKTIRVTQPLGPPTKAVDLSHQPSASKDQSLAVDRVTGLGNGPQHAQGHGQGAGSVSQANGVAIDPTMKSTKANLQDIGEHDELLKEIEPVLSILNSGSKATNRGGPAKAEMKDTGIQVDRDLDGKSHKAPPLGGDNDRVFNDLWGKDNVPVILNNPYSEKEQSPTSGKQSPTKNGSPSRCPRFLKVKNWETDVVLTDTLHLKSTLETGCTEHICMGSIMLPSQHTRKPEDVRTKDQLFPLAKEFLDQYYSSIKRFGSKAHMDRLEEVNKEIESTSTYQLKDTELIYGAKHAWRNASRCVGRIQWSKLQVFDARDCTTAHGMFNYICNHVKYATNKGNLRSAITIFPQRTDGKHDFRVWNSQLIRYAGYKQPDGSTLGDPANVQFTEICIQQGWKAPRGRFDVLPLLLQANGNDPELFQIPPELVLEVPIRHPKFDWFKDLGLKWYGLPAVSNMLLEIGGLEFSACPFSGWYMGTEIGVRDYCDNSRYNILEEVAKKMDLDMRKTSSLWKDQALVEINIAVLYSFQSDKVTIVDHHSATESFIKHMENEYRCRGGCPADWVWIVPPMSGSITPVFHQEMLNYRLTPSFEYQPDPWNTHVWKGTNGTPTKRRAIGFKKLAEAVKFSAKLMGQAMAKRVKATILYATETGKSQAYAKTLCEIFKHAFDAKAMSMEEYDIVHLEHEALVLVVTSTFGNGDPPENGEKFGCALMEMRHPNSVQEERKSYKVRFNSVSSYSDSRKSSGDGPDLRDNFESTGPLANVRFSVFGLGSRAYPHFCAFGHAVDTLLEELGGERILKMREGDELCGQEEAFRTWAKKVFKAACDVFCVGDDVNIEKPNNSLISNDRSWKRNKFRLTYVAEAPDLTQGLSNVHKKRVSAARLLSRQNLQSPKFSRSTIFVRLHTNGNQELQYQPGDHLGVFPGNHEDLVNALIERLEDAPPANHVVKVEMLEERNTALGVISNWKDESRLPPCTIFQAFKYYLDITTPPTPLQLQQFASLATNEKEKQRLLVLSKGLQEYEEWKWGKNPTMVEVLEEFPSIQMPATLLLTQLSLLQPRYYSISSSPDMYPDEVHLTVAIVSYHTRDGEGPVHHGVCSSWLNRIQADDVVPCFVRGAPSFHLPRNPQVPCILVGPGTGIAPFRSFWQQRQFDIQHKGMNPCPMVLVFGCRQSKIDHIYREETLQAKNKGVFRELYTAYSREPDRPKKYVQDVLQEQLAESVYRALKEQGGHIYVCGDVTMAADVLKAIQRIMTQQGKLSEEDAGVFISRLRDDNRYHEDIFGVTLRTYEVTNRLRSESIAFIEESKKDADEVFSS

Nitric oxide synthase 1 (Rattus norvegicus), sequence (P29476 whole entry): as above

inhibition [1] | inhibition [2] | inhibition [3] | Ki [4] | Ki (Nitric oxide synthase 1) | Compound
54% | 25% | 27% | – | – | CS/C(S)=N/CCC[C@H](N)C(=O)O
> 99% | > 99% | > 99% | 3.6 µM | 60 nM | N/C(S)=N/CCC[C@H](N)C(=O)O
56% | 46% | 39% | – | – | CSC(=NCCC[C@H](N)C(=O)O)SC

Compound | inhibition [1] | inhibition [2] | inhibition [3] | Ki [4] | Ki (Nitric oxide synthase 1)
CCOP(=S)(NCCC[C@H](N)C(=O)O)OCC | < 10% | – | – | – | –
